The values below come from ChEMBL document CHEMBL3046242, “Synthesis and evaluation of thiopyrano[3,4-c]quinoline-9-carboxamide derivatives as inhibitors of poly(ADP-ribose) polymerase-1 (PARP-1)” (Med Chem Res, 2012).

The target in series [1] is T1, Poly [ADP-ribose] polymerase 1 (Homo sapiens, UniProt P09874). The experiment in a line: Inhibition of PARP-1 (unknown origin) assessed as inhibition of biotinylated poly(ADP-ribose) onto histone proteins after 30 min by colorimetry.
The target of series [2] is T1, Poly [ADP-ribose] polymerase 1. Put plainly: Inhibition of PARP-1 (unknown origin) expressed in CHO-K1 cells assessed as depletion of NAD(P)H after 2 hr by CCK-8 assay. The format is cell-based. A general note: Tetrazolium dyes change colour on reduction, which living cells bring about.
A short description of series [3]: Half life in Homo sapiens (human) liver microsomes at 1 uM by LC/MS/MS analysis. The format is ADME. For orientation: Microsomes from liver hold many membrane-bound enzymes, among them those of drug oxidation.
The nature of series [4]: Clearance in Rattus norvegicus Sprague-Dawley (rat) at 5 mg/kg, iv. The format is ADME, organism-based. More on the design: dose 5 mg/kg, route intravenous. The conditions noted are these: in vivo.
A short description of series [5]: Solubility of the compound in water. The format is physicochemical.
Series [6] is described as follows: AUC (0 to infinity) in Rattus norvegicus Sprague-Dawley (rat) at 5 mg/kg, iv. The format is ADME, organism-based. More on the design: time infinity, dose 5 mg/kg, route intravenous. The conditions noted are these: plasma.
The nature of series [7]: Half life in Rattus norvegicus Sprague-Dawley (rat) at 5 mg/kg, iv. The format is ADME, organism-based. More on the design: dose 5 mg/kg, route intravenous. The conditions noted are these: in vivo.

T1 sequence (P09874 whole entry): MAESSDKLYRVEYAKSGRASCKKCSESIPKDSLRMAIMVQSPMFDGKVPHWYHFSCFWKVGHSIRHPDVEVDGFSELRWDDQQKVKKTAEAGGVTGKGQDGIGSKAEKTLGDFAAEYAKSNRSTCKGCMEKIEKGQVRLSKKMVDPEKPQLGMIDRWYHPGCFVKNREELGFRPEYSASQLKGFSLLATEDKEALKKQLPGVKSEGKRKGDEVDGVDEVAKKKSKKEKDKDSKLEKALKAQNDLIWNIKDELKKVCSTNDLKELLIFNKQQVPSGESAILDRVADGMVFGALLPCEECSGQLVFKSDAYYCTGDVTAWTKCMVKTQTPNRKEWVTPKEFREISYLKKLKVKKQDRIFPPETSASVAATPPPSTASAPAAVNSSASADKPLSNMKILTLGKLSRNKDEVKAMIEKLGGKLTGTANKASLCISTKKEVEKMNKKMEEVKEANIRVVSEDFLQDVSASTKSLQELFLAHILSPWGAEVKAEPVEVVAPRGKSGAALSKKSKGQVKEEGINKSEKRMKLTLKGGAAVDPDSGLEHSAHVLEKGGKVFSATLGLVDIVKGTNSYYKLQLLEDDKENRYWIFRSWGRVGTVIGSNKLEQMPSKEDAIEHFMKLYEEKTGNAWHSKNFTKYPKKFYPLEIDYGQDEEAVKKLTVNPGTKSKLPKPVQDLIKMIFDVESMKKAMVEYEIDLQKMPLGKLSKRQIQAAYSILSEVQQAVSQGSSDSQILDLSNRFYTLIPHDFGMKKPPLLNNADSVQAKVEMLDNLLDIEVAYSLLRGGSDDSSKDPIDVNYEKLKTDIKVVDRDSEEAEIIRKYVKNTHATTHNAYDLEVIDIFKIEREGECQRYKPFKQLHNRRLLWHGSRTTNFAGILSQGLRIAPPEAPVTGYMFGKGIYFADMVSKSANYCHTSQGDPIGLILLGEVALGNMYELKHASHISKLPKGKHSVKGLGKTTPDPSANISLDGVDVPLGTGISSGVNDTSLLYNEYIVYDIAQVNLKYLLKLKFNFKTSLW

As for `CCN1CCN(C(=O)c2ccc3[nH]c(=O)c4c(c3c2)CCSC4)CC1`, the IC50 in series [1] was found to be 47 nM. Besides, the ED50 in series [2] is 2000 nM.

Turning to `O=C(c1ccc2[nH]c(=O)c3c(c2c1)CCSC3)N1CCN(c2ccncc2)CC1`, the IC50 in series [1] was 20 nM. In series [2], the ED50 is over 30000 nM.

As for `NCCNC(=O)c1ccc2[nH]c(=O)c3c(c2c1)CCSC3`, the 50% inhibitory concentration (IC50) in series [1] came to 17 nM. In series [2], the ED50 was over 30000 nM.

As for `CC(C)CCN1CCN(C(=O)c2ccc3[nH]c(=O)c4c(c3c2)CCSC4)CC1`, in series [1], the IC50 turned out to be 65 nM. Also, the ED50 in series [2] amounted to 840 nM. The compound further displayed a half-life at 1 µM in series [3] of 15.9 min.

In the case of `CN1CCN(C(=O)c2ccc3[nH]c(=O)c4c(c3c2)CCSC4)CC1`, the IC50 in series [1] stood at 188 nM. In series [2], the ED50 is 2530 nM.

As to `CCCN1CCN(C(=O)c2ccc3[nH]c(=O)c4c(c3c2)CCSC4)CC1`, in series [1], the concentration for half-maximal inhibition (IC50) was determined as 45 nM. The clearance in series [4] was 63.3 mL/min/kg. The ED50 in series [2] turned out to be 540 nM. The compound also yielded a solubility in series [5] of over 1000 µg/mL. The same compound had an AUC(0-inf) in series [6] of 1300 ng·h/mL. The same compound showed a half-life in series [7] of 84 min. Besides, the half-life at 1 µM in series [3] came out at 41.7 min.

As to `O=C(NCCN1CCCCC1)c1ccc2[nH]c(=O)c3c(c2c1)CCSC3`, the IC50 in series [1] came out at 58 nM. Moreover, the ED50 in series [2] amounted to 2810 nM.

Take `O=C(O)c1ccc2[nH]c(=O)c3c(c2c1)CCSC3`: the IC50 in series [1] is 78 nM.

With `NCCCCNC(=O)c1ccc2[nH]c(=O)c3c(c2c1)CCSC3`, the IC50 in series [1] was found to be 27 nM. In addition, the ED50 in series [2] is over 30000 nM.

Consider `CCCC(C)N1CCN(C(=O)c2ccc3[nH]c(=O)c4c(c3c2)CCSC4)CC1` (configuration not stated), for which, in series [1], the IC50 came to 40 nM. For the same compound, the ED50 in series [2] amounted to 460 nM.

For `NCCCNC(=O)c1ccc2[nH]c(=O)c3c(c2c1)CCSC3`, the IC50 in series [1] was determined as 30 nM. For the same compound, the ED50 in series [2] is over 30000 nM.

For the compound `O=C(c1ccc2[nH]c(=O)c3c(c2c1)CCSC3)N1CCN(C2CCCCC2)CC1`, the IC50 in series [1] is 68 nM. Moreover, in series [2], the ED50 is 320 nM.

In series [3], `O=C1CC2(CCCC2)CC(=O)N1CCCCN1CCN(c2ncccn2)CC1` [BUSPIRONE] displayed a half-life at 1 µM of 4 min.

Take `CCCCCN1CCN(C(=O)c2ccc3[nH]c(=O)c4c(c3c2)CCSC4)CC1`: the IC50 in series [1] amounted to 79 nM. Further, the ED50 in series [2] stood at 610 nM.

Consider `O=C(NCCN1CCOCC1)c1ccc2[nH]c(=O)c3c(c2c1)CCSC3`, for which, in series [1], the IC50 came out at 60 nM. In series [2], the ED50 is over 30000 nM.

On to `O=C(c1ccc2[nH]c(=O)c3c(c2c1)CCSC3)N1CCN(c2ccccc2)CC1`, for which the IC50 in series [1] is 234 nM. For the same compound, the ED50 in series [2] was 1290 nM.

In the case of `O=C(NCCN1CCNCC1)c1ccc2[nH]c(=O)c3c(c2c1)CCSC3`, the IC50 in series [1] came to 36 nM. In series [2], the ED50 was over 30000 nM.

On to `O=C(NCCN1CCN(c2ccccc2)CC1)c1ccc2[nH]c(=O)c3c(c2c1)CCSC3`, for which, in series [1], the IC50 turned out to be 166 nM. Besides, the ED50 in series [2] is 4020 nM.

Regarding `O=C(c1ccc2[nH]c(=O)c3c(c2c1)CCSC3)N1CCN(CCc2ccccc2)CC1`, the IC50 in series [1] is 19 nM. Also, in series [2], the ED50 worked out at 2190 nM.

Turning to `CCCCN1CCN(C(=O)c2ccc3[nH]c(=O)c4c(c3c2)CCSC4)CC1`, the IC50 in series [1] was found to be 42 nM. The ED50 in series [2] amounted to 770 nM.

As to `O=C(NCCN1CCN(c2ccncc2)CC1)c1ccc2[nH]c(=O)c3c(c2c1)CCSC3`, the IC50 in series [1] is 44 nM. Besides, the ED50 in series [2] was over 30000 nM.

Regarding `O=C(c1ccc2[nH]c(=O)c3c(c2c1)CCSC3)N1CCCCC1`, in series [1], the 50% inhibitory concentration (IC50) amounted to 175 nM. The ED50 in series [2] was 1260 nM.

For the compound `CCCCCCN1CCN(C(=O)c2ccc3[nH]c(=O)c4c(c3c2)CCSC4)CC1`, in series [1], the IC50 stood at 94 nM. In addition, the ED50 in series [2] came to 2910 nM.

As to `O=C(c1ccc2[nH]c(=O)c3c(c2c1)CCSC3)N1CCN(Cc2ccccc2)CC1`, the IC50 in series [1] is 187 nM. Further, the ED50 in series [2] was 2510 nM.

`CCOC(=O)c1ccc2[nH]c(=O)c3c(c2c1)CCSC3`: the half-maximal inhibitory concentration (IC50) in series [1] came out at 536 nM.

As to `O=C(c1ccc2[nH]c(=O)c3c(c2c1)CCSC3)N1CCN(CCCC(F)(F)F)CC1`, in series [1], the concentration for half-maximal inhibition (IC50) is 134 nM. In series [2], the ED50 turned out to be 2410 nM.

With `O=C(c1ccc2[nH]c(=O)c3c(c2c1)CCSC3)N1CCN(C2CCCCCC2)CC1`, the IC50 in series [1] was determined as 67 nM. Also, the ED50 in series [2] is 500 nM.

`O=C(c1ccc2[nH]c(=O)c3c(c2c1)CCSC3)N1CCNCC1`: the IC50 in series [1] was found to be 8 nM. In series [2], the ED50 is over 30000 nM.

Consider `O=C(c1ccc2[nH]c(=O)c3c(c2c1)CCSC3)N1CCN(C2CCCC2)CC1`, for which the IC50 in series [1] worked out at 47 nM. Moreover, the ED50 in series [2] is 550 nM. This compound also displayed a half-life at 1 µM in series [3] of 14.5 min.

The term IC50 denotes the point on the concentration scale where inhibition reaches its midpoint. Broadly, the half-life is how long it takes for the measured level to halve. Lower therefore signals rapid decline. Usually clearance stands for the volume of plasma or blood freed of the substance per unit of time. Higher therefore signals a high capacity for elimination. In general, solubility refers to the dissolved amount per volume that the medium holds. A lower solubility goes with a poorly soluble substance. A word on the AUC(0-inf): it is total exposure, with the tail of the curve extrapolated.
